Among the test systems are NCI-H226 lung; RPMI-8226 leukemia; HL-60(TB) leukemia; 786-0 renal; SN12C renal; SF-268 CNS; MDA-MB-231 breast; K-562 leukemia; EKVX NSCLC; UACC-62 melanoma; OVCAR-4 ovarian; SNB-75 CNS; SF-295 CNS.
Test in all cases: DTP human tumour cell line panel, 48 h

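These data come from cells grown in 96-well plates and exposed to compound for 48 hours at five concentrations. TGI is the concentration that stops growth completely.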 Where only a bound is given, the exact number is not on record here.

Broadly, the TGI is the concentration giving total growth inhibition. A lower TGI goes with more potent growth arrest.

For `C(=C\c1cccs1)/c1cccc(/C=C/c2cccs2)n1`, the TGI with NCI-H226 lung is more than 100 µM; with RPMI-8226 leukemia, more than 100 µM; with HL-60(TB) leukemia it was more than 100 µM; in the assay on 786-0 renal it was more than 100 µM; in the assay on SN12C renal it was more than 100 µM; in the assay on SF-268 CNS it was 6.9 µM. The total growth inhibition concentration (TGI) in the assay on MDA-MB-231 breast is more than 100 µM; in the assay with K-562 leukemia it was more than 100 µM; with EKVX NSCLC, more than 100 µM; in the assay on UACC-62 melanoma, more than 100 µM; in the assay with OVCAR-4 ovarian it was 66.6 µM; with SNB-75 CNS, 79.4 µM. Besides, in the assay on SF-295 CNS, the TGI was more than 100 µM.

On to `C=CCOc1cccc(C2(O)c3ccccc3C3=NCCCN32)c1` (stereo unspecified), for which the concentration for total growth inhibition (TGI) with NCI-H226 lung is more than 31.6 µM; in the assay with RPMI-8226 leukemia, 40.3 µM; with HL-60(TB) leukemia it was more than 35.6 µM; in the assay with 786-0 renal it was 25.2 µM; with SN12C renal it was more than 68.8 µM; with SF-268 CNS it was more than 100 µM. For the same compound, the TGI in the assay on MDA-MB-231 breast was more than 100 µM; in the assay with K-562 leukemia, more than 35.4 µM; in the assay with EKVX NSCLC, more than 35.1 µM; with UACC-62 melanoma, 31.6 µM; in the assay on OVCAR-4 ovarian it was more than 80.1 µM; with SNB-75 CNS, 36.8 µM. In the assay with SF-295 CNS, this compound registered a total growth inhibition concentration (TGI) of 7.83 µM.

For the origin of these results see PubChem BioAssay (NCI).
